Assay results from patent US20260034123A1 (Cedilla Therapeutics, Inc., priority 2022, published 2026).
pIC50: −log10 of the molar value. Where “and” joins values, the source holds several entries; their conditions need not be identical. Equal entries are not always repeated.

Tests used:
CDK2/Cyclin E1 [1] = molecular target: T1, CDK2/Cyclin E1 (Homo sapiens, UniProt P24941); experiment: ADP-Glo Luminescent Kinase Assay (CDK2/E1-37C); assay type: biochemical; conditions: 0.18 nM CDK2/Cyclin E1, 100 μM ATP, Histone H1, 37° C.; read-out: ADPGLO (CDK2/E1-37C): IC50
In short: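 IC50 fitted by four-parameter equation from ADP-Glo luminescence converted to % activity. Compounds were preincubated 60 min at 37 °C with enzyme, then kinase reaction ran 90 min at 37 °C with 0.18 nM enzyme, 100 μM ATP, Histone H1 ([…]), pH 7.5 HEPES, Mg2+, DTT.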

Kuramochi cells RB-WT = experiment: IncuCyte Kuramochi cell proliferation assay, RB-WT; assay type: cell-based; conditions: 72 hours, cell count
In short: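 GI50 was derived by curve-fitting DMSO-normalized fold change in nuclear count between 0 and 72 h. Counts came from images of Kuramochi cells carrying mApple-H2B. Compounds were dosed over 10 points at 1/2-log spacing from a 20 µM top concentration.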

CDK2/Cyclin E1 [2] = molecular target: T1, CDK2/Cyclin E1; experiment: Caliper LabChip EZ Reader mobility shift assay; assay type: biochemical; conditions: 2.5 nM CDK2/Cyclin E1(14-475), 100 μM ATP, 30 min preincubation; read-out: Caliper Assay (CDK2/CCNE1): IC50
In short: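 Mobility-shift assay with CDK2/Cyclin E1(14-475) at 2.5 nM, 100 μM ATP and 1.5 μM 5-FAM-QSPKKG-CONH2 in HEPES pH 7.5 buffer with 0.1% DMSO. Compounds were preincubated with enzyme and ATP for 30 min, the reaction ran 100 min and was stopped with EDTA. IC50 came from a four-parameter fit of normalized conversion ratio.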

[3] = tested on: mouse models of polycystic kidney disease; conditions: Bukanov et al., Nature 2006; cited from earlier work

| pIC50 (CDK2/Cyclin E1 [1]) | pIC50 (CDK2/Cyclin E1 [2]) | SMILES | pIC50 (Kuramochi cells RB-WT) | arrest of cystic kidney disease [3] |
| --- | --- | --- | --- | --- |
| 5.00 to 5.30 | 5.00 to 6.00 and 6.00 to 7.00 | CC1(C)C[C@@H]1C(=O)N1CC2(CN(C(=O)c3cncs3)C[C@H]2COCc2cccc(C3CCOCC3)n2)C1 [Compound I-49, (2-((S)-2,2-dimethylcyclopropane-1-carbonyl)-8-(((6-(tetrahydro-2H-pyran-4-yl)pyridin-2-yl)methoxy)methyl)-2,6-diazaspiro[3.4]octan-6-yl)(thiazol-5-yl)methanone] | < 5.00 |  |
| < 5.00 | 6.00 to 7.00 | CC1(C)C[C@@H]1C(=O)N1CC2(CN(C(=O)c3cncs3)C[C@H]2COCc2cccc(C3CCOCC3)c2)C1 [Compound I-39, ((S)-2-((S)-2,2-dimethylcyclopropane-1-carbonyl)-8-(((3-(tetrahydro-2H-pyran-4-yl)benzyl)oxy)methyl)-2,6-diazaspiro[3.4]octan-6-yl)(thiazol-5-yl)methanone] | < 5.00 |  |
| 5.30 to 6.30 | 7.00 to 8.00 | CC1(C)C[C@@H]1C(=O)N1CC2(CN(C(=O)c3cncs3)C[C@H]2COCc2cccc(-c3ccc(C(F)(F)F)cc3)n2)C1 [Compound I-34, ((S)-2-((S)-2,2-dimethylcyclopropane-1-carbonyl)-8-(((6-(4-(trifluoromethyl)phenyl)pyridin-2-yl)methoxy)methyl)-2,6-diazaspiro[3.4]octan-6-yl)(thiazol-5-yl)methanone] | 5.00 to 5.30 |  |
| 5.00 to 5.30 | 6.00 to 7.00 | CC1(C)C[C@@H]1C(=O)N1CC2(CN(C(=O)c3cncs3)C[C@H]2COCc2cccc(-c3ccccc3)n2)C1 [Compound I-36, ((S)-2-((S)-2,2-dimethylcyclopropanecarbonyl)-8-(((6-phenylpyridin-2-yl)methoxy)methyl)-2,6-diazaspiro[3.4]octan-6-yl)(thiazol-5-yl)methanone] | < 5.00 |  |
| 5.30 to 6.30 | 6.00 to 7.00 | Cc1c(COC[C@@H]2CN(C(=O)c3cncs3)CC23CN(C(=O)[C@H]2CC2(C)C)C3)cccc1C1CCOCC1 [Compound I-31, ((S)-2-((S)-2,2-dimethylcyclopropanecarbonyl)-8-(((2-methyl-3-(tetrahydro-2H-pyran-4-yl)benzyl)oxy)methyl)-2,6-diazaspiro[3.4]octan-6-yl)(thiazol-5-yl)methanone] | 5.00 to 5.30 |  |
| 5.30 to 6.30 | > 8.00 | CC1(C)C[C@@H]1C(=O)N1CC2(CN(C(=O)c3cncs3)CC2COCc2cccc(-c3ccc(C(F)(F)F)cc3)c2C(=O)O)C1 (stereo partly drawn) [Compound I-4, 3-(((2-((S)-2,2-dimethylcyclopropane-1-carbonyl)-6-(thiazole-5-carbonyl)-2,6-diazaspiro[3.4]octan-8-yl)methoxy)methyl)-4′-(trifluoromethyl)-[1,1′-biphenyl]-2-carboxylic acid] | < 5.00 |  |
| < 5.00 | < 5.00 | O=C(O)C(Cc1cccc(-c2ccc(C(F)(F)F)cc2)n1)CC1CN(C(=O)c2cnn(Cc3ccc(C(F)(F)F)cc3)c2)CC12CN(C(=O)C1(C(F)(F)F)CC1)C2 (stereo not shown) [Compound I-50, 2-((6-(1-(4-(trifluoromethyl)benzyl)-1H-pyrazole-4-carbonyl)-2-(1-(trifluoromethyl)cyclopropane-1-carbonyl)-2,6-diazaspiro[3.4]octan-8-yl)methyl)-3-(6-(4-(trifluoromethyl)phenyl)pyridin-2-yl)propanoic acid] | < 5.00 |  |
|  |  | CC[C@H](CO)Nc1nc(NCc2ccccc2)c2ncn(C(C)C)c2n1 [roscovitine] |  | effective arrest of cystic kidney disease |
